# Measurements taken from ChEMBL document CHEMBL5352421, “Identification of novel piperazine-tethered phthalazines as selective CDK1 inhibitors endowed with in vitro anticancer activity toward the pancreatic cancer” (Eur J Med Chem, 2022).
# Columns and labels:
# A-375 = assay: Antiproliferative activity against human A-375 cells assessed as growth inhibition incubated at 10 uM for 24 hrs by MTT assay relative to control; type: functional; settings: read-out: GI
# MOLT-4 = assay: Antiproliferative activity against human MOLT-4 cells assessed as growth inhibition incubated at 10 uM for 24 hrs by MTT assay relative to control; type: functional; settings: read-out: GI
# [1] = biological target: Insulin-like growth factor 1 receptor (Homo sapiens, UniProt P08069); assay: Inhibition of IGF1R (unknown origin) by FRET assay
# [2] = Selectivity index, ratio of IC50 for CDK5 (unknown origin) to CDK1 (unknown origin)
# [3] = biological target: Cyclin-dependent kinase 5 (Homo sapiens, UniProt Q00535); assay: Inhibition of CDK5 (unknown origin) by FRET assay
# [4] = biological target: Fibroblast growth factor receptor (Homo sapiens, UniProt P22607+P11362+P22455+P21802); assay: Inhibition of FGFR (unknown origin) by FRET assay; type: protein assay
# [5] = biological target: Cyclin-dependent kinase 2 (Homo sapiens, UniProt P24941); assay: Inhibition of CDK2 (unknown origin) by FRET assay
# [6] = Antiproliferative activity against human PL45 cells assessed as growth inhibition incubated at 10 uM for 24 hrs by MTT assay relative to control; type: functional; settings: read-out: GI
# BT-549 = assay: Antiproliferative activity against human BT-549 cells assessed as growth inhibition incubated at 10 uM for 24 hrs by MTT assay relative to control; type: functional; settings: read-out: GI
# [7] = biological target: Tyrosine-protein kinase JAK1 (Homo sapiens, UniProt P23458); assay: Inhibition of JAK1 (unknown origin) by FRET assay
# [8] = biological target: T1, Tyrosine-protein kinase receptor UFO (Homo sapiens, UniProt P30530); assay: Inhibition of AXL (unknown origin) by FRET assay
# T1 sequence (P30530 whole entry): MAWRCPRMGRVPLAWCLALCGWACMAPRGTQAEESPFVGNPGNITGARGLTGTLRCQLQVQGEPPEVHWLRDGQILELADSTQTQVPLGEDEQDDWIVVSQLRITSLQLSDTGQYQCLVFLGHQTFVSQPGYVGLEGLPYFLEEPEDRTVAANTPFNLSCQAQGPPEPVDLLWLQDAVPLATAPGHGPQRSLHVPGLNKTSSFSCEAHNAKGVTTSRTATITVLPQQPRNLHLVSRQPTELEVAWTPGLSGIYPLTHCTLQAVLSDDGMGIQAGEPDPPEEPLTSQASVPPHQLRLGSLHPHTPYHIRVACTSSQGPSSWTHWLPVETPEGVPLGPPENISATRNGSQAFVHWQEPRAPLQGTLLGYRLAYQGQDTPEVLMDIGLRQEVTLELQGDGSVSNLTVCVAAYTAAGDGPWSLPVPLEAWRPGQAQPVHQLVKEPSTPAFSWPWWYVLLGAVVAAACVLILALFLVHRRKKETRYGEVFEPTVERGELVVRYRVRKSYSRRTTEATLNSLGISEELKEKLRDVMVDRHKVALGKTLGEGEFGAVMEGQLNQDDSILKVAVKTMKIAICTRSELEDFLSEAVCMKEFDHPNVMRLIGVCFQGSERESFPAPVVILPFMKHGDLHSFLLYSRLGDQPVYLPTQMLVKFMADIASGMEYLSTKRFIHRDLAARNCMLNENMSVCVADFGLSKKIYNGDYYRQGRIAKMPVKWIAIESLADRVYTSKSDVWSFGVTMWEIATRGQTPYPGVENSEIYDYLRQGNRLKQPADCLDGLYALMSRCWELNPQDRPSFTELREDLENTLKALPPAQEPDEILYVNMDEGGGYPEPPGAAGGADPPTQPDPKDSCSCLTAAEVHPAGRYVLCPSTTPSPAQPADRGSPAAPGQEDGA
# KG-1 = assay: Antiproliferative activity against human KG-1 cells assessed as growth inhibition incubated at 10 uM for 24 hrs by MTT assay relative to control; type: functional; settings: read-out: GI
# G-361 = assay: Antiproliferative activity against human G-361 cells assessed as growth inhibition incubated at 10 uM for 24 hrs by MTT assay relative to control; type: functional; settings: read-out: GI
# [9] = biological target: Protein-tyrosine kinase 2-beta (Homo sapiens, UniProt Q14289); assay: Inhibition of PTK2B (unknown origin) by FRET assay
# [10] = Antiproliferative activity against human MDA-PATC53 cells assessed as growth inhibition incubated for 24 hrs by MTT assay; type: functional, cell-based; settings: MDA-PATC53, 24 h
# [11] = biological target: Cyclin-dependent kinase 1 (Homo sapiens, UniProt P06493); assay: Inhibition of CDK1 (unknown origin) by FRET assay
# [12] = Antiproliferative activity against human PL45 cells assessed as growth inhibition incubated for 24 hrs by MTT assay; type: functional, cell-based; settings: PL45, 24 h
# MCF7 = assay: Antiproliferative activity against human MCF7 cells assessed as growth inhibition incubated at 10 uM for 24 hrs by MTT assay relative to control; type: functional; settings: read-out: GI
# HT-29 = assay: Antiproliferative activity against human HT-29 cells assessed as growth inhibition incubated at 10 uM for 24 hrs by MTT assay relative to control; type: functional; settings: read-out: GI
# SK-MEL-1 = assay: Antiproliferative activity against human SK-MEL-1 cells assessed as growth inhibition incubated at 10 uM for 24 hrs by MTT assay relative to control; type: functional; settings: read-out: GI
# [13] = biological target: Serine/threonine-protein kinase B-raf (Homo sapiens, UniProt P15056); assay: Inhibition of BRAF (unknown origin) by FRET assay
# T84 = assay: Antiproliferative activity against human T84 cells assessed as growth inhibition incubated at 10 uM for 24 hrs by MTT assay relative to control; type: functional; settings: read-out: GI
# [14] = Selectivity index, ratio of IC50 for CDK2 (unknown origin) to CDK1 (unknown origin)
# [15] = Antiproliferative activity against human MDA-PATC53 cells assessed as growth inhibition incubated at 10 uM for 24 hrs by MTT assay relative to control; type: functional; settings: read-out: GI
# Cyclin-dependent kinase 1, sequence (P06493 whole entry): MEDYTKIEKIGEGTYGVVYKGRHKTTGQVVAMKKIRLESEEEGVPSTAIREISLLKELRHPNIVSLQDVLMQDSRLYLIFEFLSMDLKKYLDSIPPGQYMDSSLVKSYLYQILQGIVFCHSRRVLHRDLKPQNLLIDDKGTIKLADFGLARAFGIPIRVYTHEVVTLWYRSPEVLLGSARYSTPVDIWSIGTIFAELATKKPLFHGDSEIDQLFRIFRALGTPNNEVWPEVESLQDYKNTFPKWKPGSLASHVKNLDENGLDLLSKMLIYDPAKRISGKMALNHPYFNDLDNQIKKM
# Serine/threonine-protein kinase B-raf, sequence (P15056 whole entry): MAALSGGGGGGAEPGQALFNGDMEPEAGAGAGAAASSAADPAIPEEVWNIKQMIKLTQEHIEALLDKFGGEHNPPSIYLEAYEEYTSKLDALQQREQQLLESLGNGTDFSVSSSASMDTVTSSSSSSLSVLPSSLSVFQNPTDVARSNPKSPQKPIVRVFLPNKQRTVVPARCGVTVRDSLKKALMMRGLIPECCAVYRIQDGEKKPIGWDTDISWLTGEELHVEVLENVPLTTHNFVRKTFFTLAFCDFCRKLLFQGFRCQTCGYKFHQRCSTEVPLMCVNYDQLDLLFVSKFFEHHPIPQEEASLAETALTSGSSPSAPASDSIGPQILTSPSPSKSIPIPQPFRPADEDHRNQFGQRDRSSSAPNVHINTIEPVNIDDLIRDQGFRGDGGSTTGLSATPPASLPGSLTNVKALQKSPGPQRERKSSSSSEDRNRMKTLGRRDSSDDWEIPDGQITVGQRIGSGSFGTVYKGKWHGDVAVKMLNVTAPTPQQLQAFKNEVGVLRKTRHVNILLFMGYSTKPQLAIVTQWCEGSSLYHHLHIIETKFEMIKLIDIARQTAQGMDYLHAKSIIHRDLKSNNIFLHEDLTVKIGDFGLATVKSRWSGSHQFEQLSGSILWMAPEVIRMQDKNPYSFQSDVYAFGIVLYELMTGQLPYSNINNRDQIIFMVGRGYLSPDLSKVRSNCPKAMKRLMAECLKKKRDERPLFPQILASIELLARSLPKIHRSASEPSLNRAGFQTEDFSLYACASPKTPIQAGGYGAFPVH
# Tyrosine-protein kinase JAK1, sequence (P23458 whole entry): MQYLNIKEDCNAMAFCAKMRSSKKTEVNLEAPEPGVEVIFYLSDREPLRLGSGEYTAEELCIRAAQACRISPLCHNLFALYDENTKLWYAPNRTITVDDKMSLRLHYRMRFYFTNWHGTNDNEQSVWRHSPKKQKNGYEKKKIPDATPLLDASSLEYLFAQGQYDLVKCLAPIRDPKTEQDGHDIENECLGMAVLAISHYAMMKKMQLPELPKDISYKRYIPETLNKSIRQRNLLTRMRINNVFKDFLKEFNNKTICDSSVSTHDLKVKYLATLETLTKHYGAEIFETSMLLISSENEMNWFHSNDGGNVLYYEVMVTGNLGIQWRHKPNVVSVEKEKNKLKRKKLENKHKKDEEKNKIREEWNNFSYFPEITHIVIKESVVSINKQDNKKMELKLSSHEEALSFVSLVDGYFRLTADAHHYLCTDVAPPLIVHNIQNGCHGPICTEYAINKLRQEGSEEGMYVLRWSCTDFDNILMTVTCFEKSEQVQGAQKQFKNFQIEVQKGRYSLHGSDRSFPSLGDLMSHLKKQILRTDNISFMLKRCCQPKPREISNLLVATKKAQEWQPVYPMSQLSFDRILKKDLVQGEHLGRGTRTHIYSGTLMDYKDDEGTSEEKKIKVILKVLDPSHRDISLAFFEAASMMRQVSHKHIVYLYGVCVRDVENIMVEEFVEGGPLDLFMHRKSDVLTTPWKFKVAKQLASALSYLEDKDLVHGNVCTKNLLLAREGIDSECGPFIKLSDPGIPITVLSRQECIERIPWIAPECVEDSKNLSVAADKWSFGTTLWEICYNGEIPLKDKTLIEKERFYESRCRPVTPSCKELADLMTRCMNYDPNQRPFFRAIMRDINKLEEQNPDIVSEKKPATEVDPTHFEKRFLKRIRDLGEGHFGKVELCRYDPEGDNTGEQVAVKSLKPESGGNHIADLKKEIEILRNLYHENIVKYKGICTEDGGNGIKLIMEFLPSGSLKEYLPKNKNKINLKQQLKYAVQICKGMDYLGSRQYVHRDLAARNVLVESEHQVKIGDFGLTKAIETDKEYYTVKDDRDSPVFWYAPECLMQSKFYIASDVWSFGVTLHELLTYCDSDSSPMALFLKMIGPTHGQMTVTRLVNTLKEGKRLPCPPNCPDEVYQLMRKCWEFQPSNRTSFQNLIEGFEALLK
# Insulin-like growth factor 1 receptor, sequence (P08069 31-736 limits assumed): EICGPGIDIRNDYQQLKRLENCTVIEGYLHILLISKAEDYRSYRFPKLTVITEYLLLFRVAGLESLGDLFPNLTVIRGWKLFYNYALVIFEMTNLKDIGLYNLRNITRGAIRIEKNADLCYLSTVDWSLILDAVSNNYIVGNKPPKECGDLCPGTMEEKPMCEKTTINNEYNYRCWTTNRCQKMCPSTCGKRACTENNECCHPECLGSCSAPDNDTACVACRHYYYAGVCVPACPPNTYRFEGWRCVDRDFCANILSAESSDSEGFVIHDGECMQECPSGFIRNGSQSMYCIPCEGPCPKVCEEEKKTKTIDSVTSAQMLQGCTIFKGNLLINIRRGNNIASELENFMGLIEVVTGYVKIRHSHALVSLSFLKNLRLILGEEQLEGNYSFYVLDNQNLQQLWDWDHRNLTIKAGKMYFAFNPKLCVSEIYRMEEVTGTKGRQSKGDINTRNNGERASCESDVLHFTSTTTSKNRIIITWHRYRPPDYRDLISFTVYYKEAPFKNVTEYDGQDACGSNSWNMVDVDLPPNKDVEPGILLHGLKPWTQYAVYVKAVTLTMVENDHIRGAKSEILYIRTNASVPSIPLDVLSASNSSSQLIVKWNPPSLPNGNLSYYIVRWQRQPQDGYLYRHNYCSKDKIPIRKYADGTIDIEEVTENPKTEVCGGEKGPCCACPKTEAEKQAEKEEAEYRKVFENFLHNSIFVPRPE
# Insulin-like growth factor 1 receptor, sequence (P08069 741-1367 limits assumed): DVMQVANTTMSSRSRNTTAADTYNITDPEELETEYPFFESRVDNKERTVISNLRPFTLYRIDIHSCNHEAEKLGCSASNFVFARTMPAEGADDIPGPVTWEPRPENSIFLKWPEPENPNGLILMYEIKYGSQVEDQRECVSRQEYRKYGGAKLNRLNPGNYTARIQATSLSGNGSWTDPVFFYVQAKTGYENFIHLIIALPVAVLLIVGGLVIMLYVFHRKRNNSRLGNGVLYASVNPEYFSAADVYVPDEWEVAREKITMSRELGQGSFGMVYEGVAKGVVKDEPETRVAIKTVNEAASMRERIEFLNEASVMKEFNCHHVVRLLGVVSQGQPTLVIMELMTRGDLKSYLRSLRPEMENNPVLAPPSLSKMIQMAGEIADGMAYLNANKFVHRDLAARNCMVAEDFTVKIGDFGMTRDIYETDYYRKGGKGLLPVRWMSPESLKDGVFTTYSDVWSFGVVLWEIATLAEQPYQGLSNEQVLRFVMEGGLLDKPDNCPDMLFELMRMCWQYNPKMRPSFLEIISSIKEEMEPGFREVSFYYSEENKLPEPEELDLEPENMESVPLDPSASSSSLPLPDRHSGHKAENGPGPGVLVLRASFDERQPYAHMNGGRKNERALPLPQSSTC
# Cyclin-dependent kinase 5, sequence (Q00535 whole entry): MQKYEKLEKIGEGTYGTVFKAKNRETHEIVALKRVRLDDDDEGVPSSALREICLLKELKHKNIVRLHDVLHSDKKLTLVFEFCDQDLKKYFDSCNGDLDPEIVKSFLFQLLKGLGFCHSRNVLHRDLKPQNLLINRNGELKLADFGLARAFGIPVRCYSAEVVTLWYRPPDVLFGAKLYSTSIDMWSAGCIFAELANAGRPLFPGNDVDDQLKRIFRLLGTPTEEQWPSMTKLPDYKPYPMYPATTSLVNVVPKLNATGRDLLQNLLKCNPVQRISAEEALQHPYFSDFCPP
# Protein-tyrosine kinase 2-beta, sequence (Q14289 whole entry): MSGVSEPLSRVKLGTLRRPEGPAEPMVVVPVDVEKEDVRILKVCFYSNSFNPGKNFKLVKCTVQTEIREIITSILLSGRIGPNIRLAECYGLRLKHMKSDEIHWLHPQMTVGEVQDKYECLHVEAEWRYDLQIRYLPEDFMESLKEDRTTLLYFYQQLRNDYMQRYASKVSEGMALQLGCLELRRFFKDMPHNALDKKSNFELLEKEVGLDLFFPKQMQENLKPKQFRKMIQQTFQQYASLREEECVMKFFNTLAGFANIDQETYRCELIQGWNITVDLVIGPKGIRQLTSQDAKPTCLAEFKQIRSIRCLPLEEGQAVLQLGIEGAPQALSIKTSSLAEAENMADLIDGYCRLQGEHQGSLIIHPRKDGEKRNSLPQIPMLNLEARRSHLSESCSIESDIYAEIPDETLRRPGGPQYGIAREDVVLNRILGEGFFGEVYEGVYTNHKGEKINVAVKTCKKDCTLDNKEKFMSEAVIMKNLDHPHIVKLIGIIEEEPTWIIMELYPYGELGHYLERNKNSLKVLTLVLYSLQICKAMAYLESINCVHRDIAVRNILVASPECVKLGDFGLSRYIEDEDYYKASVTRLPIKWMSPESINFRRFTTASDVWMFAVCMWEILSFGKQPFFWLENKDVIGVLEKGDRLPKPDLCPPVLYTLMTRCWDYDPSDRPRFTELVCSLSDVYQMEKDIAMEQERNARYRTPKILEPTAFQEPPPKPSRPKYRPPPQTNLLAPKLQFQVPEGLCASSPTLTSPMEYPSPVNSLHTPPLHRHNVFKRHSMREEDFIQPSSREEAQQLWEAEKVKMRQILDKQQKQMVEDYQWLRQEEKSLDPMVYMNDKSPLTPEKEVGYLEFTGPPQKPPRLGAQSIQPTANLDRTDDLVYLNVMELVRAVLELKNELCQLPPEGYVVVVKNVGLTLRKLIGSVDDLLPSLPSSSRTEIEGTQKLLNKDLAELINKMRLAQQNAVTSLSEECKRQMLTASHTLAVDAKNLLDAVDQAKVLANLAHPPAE
compound,measurement,setting,value
O=C(Nc1ccc(Cl)cc1)N1CCN(c2nnc(Cc3ccccc3)c3ccccc23)CC1,inhibition of growth at 10 µM,A-375,66.3%
same,inhibition of growth at 10 µM,MOLT-4,33%
same,IC50,[1],3.15 µM
same,Ratio IC50,[2],14.2
same,IC50,[3],0.826 µM
same,IC50,[4],6.346 µM
same,IC50,[5],0.103 µM
same,inhibition of growth at 10 µM,[6],81.8%
same,inhibition of growth at 10 µM,BT-549,23%
same,IC50,[7],4.55 µM
same,IC50,[8],8.75 µM
same,inhibition of growth at 10 µM,KG-1,57.9%
same,inhibition of growth at 10 µM,G-361,47%
same,IC50,[9],1.33 µM
same,IC50,[10],5.3 µM
same,IC50,[11],0.0584 µM
same,IC50,[12],2.21 µM
same,inhibition of growth at 10 µM,MCF7,64.8%
same,inhibition of growth at 10 µM,HT-29,81.2%
same,inhibition of growth at 10 µM,SK-MEL-1,50.1%
same,IC50,[13],3.65 µM
same,inhibition of growth at 10 µM,T84,29.4%
same,Ratio IC50,[14],1.76
same,inhibition of growth at 10 µM,[15],67.4%
COc1ccc(Cc2nnc(N3CCN(C(=S)Nc4ccccc4)CC3)c3ccccc23)cc1,inhibition of growth at 10 µM,A-375,17%
same,inhibition of growth at 10 µM,MOLT-4,28.7%
same,IC50,[1],2.43 µM
same,Ratio IC50,[2],11.7
same,IC50,[3],0.996 µM
same,IC50,[4],7.953 µM
same,IC50,[5],0.524 µM
same,inhibition of growth at 10 µM,[6],42.3%
same,inhibition of growth at 10 µM,BT-549,13.2%
same,IC50,[7],3.55 µM
same,IC50,[8],1.17 µM
same,inhibition of growth at 10 µM,KG-1,13.9%
same,inhibition of growth at 10 µM,G-361,4.21%
same,IC50,[9],1.45 µM
same,IC50,[10],2.06 µM
same,IC50,[11],0.0851 µM
same,IC50,[12],13.3 µM
same,inhibition of growth at 10 µM,MCF7,14%
same,inhibition of growth at 10 µM,HT-29,16.9%
same,inhibition of growth at 10 µM,SK-MEL-1,11.4%
same,IC50,[13],4.73 µM
same,inhibition of growth at 10 µM,T84,7.38%
same,Ratio IC50,[14],6.16
same,inhibition of growth at 10 µM,[15],76.2%
S=C(Nc1ccccc1)N1CCN(c2nnc(Cc3ccccc3)c3ccccc23)CC1,inhibition of growth at 10 µM,A-375,38.2%
same,inhibition of growth at 10 µM,MOLT-4,43%
same,IC50,[1],2.37 µM
same,Ratio IC50,[2],13.5
same,IC50,[3],0.947 µM
same,IC50,[4],2.507 µM
same,IC50,[5],0.24 µM
same,inhibition of growth at 10 µM,[6],78.4%
same,inhibition of growth at 10 µM,BT-549,42.1%
same,IC50,[7],4.97 µM
same,IC50,[8],1.26 µM
same,inhibition of growth at 10 µM,KG-1,61.9%
same,inhibition of growth at 10 µM,G-361,58.9%
same,IC50,[9],5.23 µM
same,IC50,[10],1.61 µM
same,IC50,[11],0.07 µM
same,IC50,[12],2.54 µM
same,inhibition of growth at 10 µM,MCF7,64.6%
same,inhibition of growth at 10 µM,HT-29,20.7%
same,inhibition of growth at 10 µM,SK-MEL-1,50.9%
same,IC50,[13],8.75 µM
same,inhibition of growth at 10 µM,T84,56%
same,Ratio IC50,[14],3.42
same,inhibition of growth at 10 µM,[15],85.2%
COc1ccc(Cc2nnc(N3CCN(C(=O)Nc4ccc(OC)cc4)CC3)c3ccccc23)cc1,inhibition of growth at 10 µM,A-375,25.8%
same,inhibition of growth at 10 µM,MOLT-4,25.4%
same,IC50,[1],0.865 µM
same,Ratio IC50,[2],2.7
same,IC50,[3],0.14 µM
same,IC50,[4],3.512 µM
same,IC50,[5],0.345 µM
same,inhibition of growth at 10 µM,[6],66.1%
same,inhibition of growth at 10 µM,BT-549,50.3%
same,IC50,[7],1.57 µM
same,IC50,[8],4.74 µM
same,inhibition of growth at 10 µM,KG-1,0.31%
same,inhibition of growth at 10 µM,G-361,49%
same,IC50,[9],4.82 µM
same,IC50,[10],4.12 µM
same,IC50,[11],0.052 µM
same,IC50,[12],5.09 µM
same,inhibition of growth at 10 µM,MCF7,24.2%
same,inhibition of growth at 10 µM,HT-29,32.1%
same,inhibition of growth at 10 µM,SK-MEL-1,39%
same,IC50,[13],3.7 µM
same,inhibition of growth at 10 µM,T84,57.5%
same,Ratio IC50,[14],6.63
same,inhibition of growth at 10 µM,[15],73.1%
